Laboratory results: the supplement of paper PMC11061612

Key:
Capivasertib = compound: C1CN(CCC1(C(=O)N[C@@H](CCO)C2=CC=C(C=C2)Cl)N)C3=NC=NC4=C3C=CN4 [Capivasertib]; conditions: max 10 µM
Outline: (§1)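 After 24 hours at 37°C and 5% CO2 in 1536-well plates holding 7.5 μl of DMEM/F12 or RPMI with 10% FBS, cancer cell lines were dosed for 72 hours, with final DMSO typically 0.2%. Viability came from CellTiter-Glo 2.0 luminescence, scaled between the means of blank wells and DMSO wells. A non-linear mixed effects model fitted a two-parameter logistic curve to each dose response to give the single-agent IC50.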

AZD1775 = compound: C=CCn1c(=O)c2cnc(Nc3ccc(N4CCN(C)CC4)cc3)nc2n1-c1cccc(C(C)(C)O)n1 [AZD1775]; conditions: max 3 µM
Outline: as §1

Trametinib = compound: CC(=O)Nc1cccc(-n2c(=O)n(C3CC3)c(=O)c3c(Nc4ccc(I)cc4F)n(C)c(=O)c(C)c32)c1 [Trametinib]; conditions: max 1 µM
Outline: as §1

Palbociclib = compound: CC(=O)c1c(C)c2cnc(Nc3ccc(N4CCNCC4)cn3)nc2n(C2CCCC2)c1=O [Palbociclib]; conditions: max 10 µM
Outline: as §1

AZD1390 = compound: CC(C)n1c(=O)n(C)c2cnc3cc(F)c(-c4ccc(OCCCN5CCCCC5)nc4)cc3c21 [AZD1390]; conditions: max 0.3 µM
Outline: as §1

Venetoclax = compound: CC1(C)CCC(CN2CCN(c3ccc(C(=O)NS(=O)(=O)c4ccc(NCC5CCOCC5)c([N+](=O)[O-])c4)c(Oc4cnc5[nH]ccc5c4)c3)CC2)=C(c2ccc(Cl)cc2)C1 [Venetoclax]; conditions: max 1 µM
Outline: as §1

Dasatinib = compound: CC1=C(C(=CC=C1)Cl)NC(=O)C2=CN=C(S2)NC3=CC(=NC(=N3)C)N4CCN(CC4)CCO [Dasatinib]; conditions: max 2 µM
Outline: as §1

SG3199 = compound: CC1=CN2[C@@H](C1)C=NC3=CC(=C(C=C3C2=O)OC)OCCCCCOC4=C(C=C5C(=C4)N=C[C@@H]6CC(=CN6C5=O)C)OC [SG3199]; conditions: max 0.001 µM
Outline: as §1

AZD2811 = compound: CCN(CCO)CCCOc1ccc2c(Nc3cc(CC(=O)Nc4cccc(F)c4)[nH]n3)ncnc2c1 [AZD2811]; conditions: max 1 µM
Outline: as §1

SN-38 = compound: CCc1c2c(nc3ccc(O)cc13)-c1cc3c(c(=O)n1C2)COC(=O)[C@]3(O)CC [SN-38]; conditions: max 0.3 µM
Outline: as §1

AZD0156 = compound: CN(C)CCCOc1ccc(-c2ccc3ncc4c(c3c2)n(C2CCOCC2)c(=O)n4C)cn1 [AZD0156]; conditions: max 3 µM
Outline: as §1

AZD4320 = compound: CN(CC[C@H](CSC1=CC=CC=C1)NC2=C(C=C(C=C2)S(=O)(=O)NC(=O)C3=CC=C(C=C3)N4CCC(CC4)[C@H](C5=CC=CC=C5C6=CC=C(C=C6)Cl)O)S(=O)(=O)C(F)(F)F)CCO [AZD4320]; conditions: max 1 µM
Outline: as §1

Alisertib = compound: COc1cc(Nc2ncc3c(n2)-c2ccc(Cl)cc2C(c2c(F)cccc2OC)=NC3)ccc1C(=O)O [Alisertib]; conditions: max 10 µM
Outline: as §1

Gefitinib = compound: COc1cc2ncnc(Nc3ccc(F)c(Cl)c3)c2cc1OCCCN1CCOCC1 [Gefitinib]; conditions: max 10 µM
Outline: as §1

Prexasertib = compound: COc1cccc(OCCCN)c1-c1cc(Nc2cnc(C#N)cn2)n[nH]1 [Prexasertib]; conditions: max 1 µM
Outline: as §1

Doxorubicin = compound: COc1cccc2c1C(=O)c1c(O)c3c(c(O)c1C2=O)C[C@@](O)(C(=O)CO)C[C@@H]3O[C@H]1C[C@H](N)[C@H](O)[C@H](C)O1 [Doxorubicin]; conditions: max 1 µM
Outline: as §1

AZD5153 = compound: COc1nnc2ccc(N3CCC(c4ccc(OCCN5CCN(C)C(=O)[C@H]5C)cc4)CC3)nn12 [AZD5153]; conditions: max 1 µM
Outline: as §1

Lapatinib = compound: CS(=O)(=O)CCNCc1ccc(-c2ccc3ncnc(Nc4ccc(OCc5cccc(F)c5)c(Cl)c4)c3c2)o1 [Lapatinib]; conditions: max 10 µM
Outline: as §1

AZD8186 = compound: C[C@@H](Nc1cc(F)cc(F)c1)c1cc(C(=O)N(C)C)cc2c(=O)cc(N3CCOCC3)oc12 [AZD8186]; conditions: max 3 µM
Outline: as §1

Crizotinib = compound: C[C@@H](Oc1cc(-c2cnn(C3CCNCC3)c2)cnc1N)c1c(Cl)ccc(F)c1Cl [Crizotinib]; conditions: max 10 µM
Outline: as §1

Savolitinib = compound: C[C@@H](c1ccc2nccn2c1)n1nnc2ncc(-c3cnn(C)c3)nc21 [Savolitinib]; conditions: max 1 µM
Outline: as §1

AZD6738 = compound: C[C@@H]1COCCN1C2=NC(=NC(=C2)C3(CC3)[S@](=N)(=O)C)C4=C5C=CNC5=NC=C4 [AZD6738]; conditions: max 10 µM
Outline: as §1

AZD5991 = compound: Cc1c2c(nn1C)CSCc1cc(n(C)n1)CSc1cc(c3ccccc3c1)OCCCc1c(C(=O)O)n(C)c3c-2c(Cl)ccc13 [AZD5991]; conditions: max 1 µM
Outline: as §1

AZD7648 = compound: Cc1cc2ncnn2cc1Nc1ncc2c(n1)n(C1CCOCC1)c(=O)n2C [AZD7648]; conditions: max 10 µM
Outline: as §1

Taselisib = compound: Cc1nc(-c2cn3c(n2)-c2ccc(-c4cnn(C(C)(C)C(N)=O)c4)cc2OCC3)n(C(C)C)n1 [Taselisib]; conditions: max 10 µM
Outline: as §1

Selumetinib = compound: Cn1cnc2c(F)c(Nc3ccc(Br)cc3Cl)c(C(=O)NOCCO)cc21 [Selumetinib]; conditions: max 10 µM
Outline: as §1

Olaparib = compound: O=C(c1cc(Cc2n[nH]c(=O)c3ccccc23)ccc1F)N1CCN(C(=O)C2CC2)CC1 [Olaparib]; conditions: max 10 µM
Outline: as §1

MK-2206 = compound: NC1(c2ccc(-c3nc4ccn5c(=O)[nH]nc5c4cc3-c3ccccc3)cc2)CCC1 [MK-2206]; conditions: max 10 µM
Outline: as §1

Cell Line	IC50, cell viability 72 h (Capivasertib)	IC50, cell viability 72 h (AZD1775)	IC50, cell viability 72 h (Trametinib)	IC50, cell viability 72 h (Palbociclib)	IC50, cell viability 72 h (AZD1390)	IC50, cell viability 72 h (Venetoclax)	IC50, cell viability 72 h (Dasatinib)	IC50, cell viability 72 h (SG3199)	IC50, cell viability 72 h (AZD2811)	IC50, cell viability 72 h (SN-38)	IC50, cell viability 72 h (AZD0156)	IC50, cell viability 72 h (AZD4320)	IC50, cell viability 72 h (Alisertib)	IC50, cell viability 72 h (Gefitinib)	IC50, cell viability 72 h (Prexasertib)	IC50, cell viability 72 h (Doxorubicin)	IC50, cell viability 72 h (AZD5153)	IC50, cell viability 72 h (Lapatinib)	IC50, cell viability 72 h (AZD8186)	IC50, cell viability 72 h (Crizotinib)	IC50, cell viability 72 h (Savolitinib)	IC50, cell viability 72 h (AZD6738)	IC50, cell viability 72 h (AZD5991)	IC50, cell viability 72 h (AZD7648)	IC50, cell viability 72 h (Taselisib)	IC50, cell viability 72 h (Selumetinib)	IC50, cell viability 72 h (Olaparib)	IC50, cell viability 72 h (MK-2206)
SAT (Head and Neck Carcinoma)	> 10 µM	2690 nM	77.2 nM	> 10 µM	> 300 nM	> 1000 nM	204 nM	> 1 nM	> 1000 nM	> 300 nM	> 3000 nM	> 1000 nM	2920 nM	2.61 µM	826 nM	> 1000 nM	155 nM	2.02 µM	> 3000 nM	> 10 µM	> 1000 nM	> 10 µM	> 1000 nM	> 10 µM	0.16 µM	4.69 µM	> 10 µM	
SNU-407 (Colorectal Carcinoma)	6.34 µM	1570 nM	74.3 nM	> 10 µM	> 300 nM	> 1000 nM	> 2000 nM	> 1 nM	> 1000 nM	160 nM	> 3000 nM	> 1000 nM	1150 nM	> 10 µM	458 nM	> 1000 nM	62.9 nM	> 10 µM	> 3000 nM	> 10 µM	> 1000 nM	4.12 µM	> 1000 nM	> 10 µM	0.365 µM	2.56 µM	> 10 µM	> 10 µM
SNU-C2B (Colorectal Carcinoma)	> 10 µM	1120 nM	> 1000 nM	> 10 µM	> 300 nM	> 1000 nM	> 2000 nM	> 1 nM	> 1000 nM	> 300 nM	> 3000 nM	> 1000 nM	> 10000 nM	> 10 µM	133 nM	> 1000 nM	788 nM	> 10 µM	> 3000 nM	> 10 µM	> 1000 nM	7.63 µM	> 1000 nM	> 10 µM	8.21 µM	> 10 µM	> 10 µM	
SUP-M2 (T-Cell Non-Hodgkin's Lymphoma)	> 10 µM	316 nM	> 1000 nM	6.52 µM	> 300 nM	> 1000 nM	> 2000 nM	> 1 nM	22.6 nM	1.56 nM	> 3000 nM	805 nM	57.7 nM	> 10 µM	16.5 nM	54.7 nM	30.4 nM	6.55 µM	> 3000 nM	0.475 µM	> 1000 nM	1.01 µM	117 nM	> 10 µM	> 10 µM	> 10 µM	5.4 µM	
SiHa (Cervical Carcinoma)	> 10 µM	> 3000 nM	> 1000 nM	> 10 µM	> 300 nM	> 1000 nM	> 2000 nM	> 1 nM	> 1000 nM	> 300 nM	> 3000 nM	> 1000 nM	> 10000 nM	> 10 µM	> 1000 nM	> 1000 nM	444 nM	> 10 µM	> 3000 nM	> 10 µM	> 1000 nM	> 10 µM	> 1000 nM	> 10 µM	> 10 µM	> 10 µM	> 10 µM	
T47D (Breast Carcinoma)	> 10 µM	> 3000 nM	> 1000 nM	> 10 µM	> 300 nM	> 1000 nM	> 2000 nM	> 1 nM	> 1000 nM	104 nM	> 3000 nM	> 1000 nM	> 10000 nM	> 10 µM	> 1000 nM	> 1000 nM	> 1000 nM	> 10 µM	> 3000 nM	> 10 µM	> 1000 nM	> 10 µM	> 1000 nM	> 10 µM	0.776 µM	> 10 µM	> 10 µM	
UACC-257 (Melanoma)	> 10 µM	> 3000 nM	41.2 nM	> 10 µM	> 300 nM	> 1000 nM	> 2000 nM	> 1 nM	> 1000 nM	> 300 nM	> 3000 nM	> 1000 nM	> 10000 nM	> 10 µM	> 1000 nM	> 1000 nM	> 1000 nM	> 10 µM	> 3000 nM	> 10 µM	> 1000 nM	> 10 µM	> 1000 nM	> 10 µM	> 10 µM	2.33 µM	> 10 µM	
WM35 (Melanoma)	> 10 µM	> 3000 nM	16.6 nM	> 10 µM	> 300 nM	> 1000 nM	> 2000 nM	> 1 nM	> 1000 nM	210 nM	> 3000 nM	> 1000 nM	> 10000 nM	> 10 µM	134 nM	> 1000 nM	> 1000 nM	> 10 µM	> 3000 nM	> 10 µM	> 1000 nM	> 10 µM	> 1000 nM	> 10 µM	> 10 µM	1.09 µM	> 10 µM	
